US20110004019A1, “Parakeratosis Inhibitor, Pore-Shrinking Agent, Or Rough Skin Inhibiting/Ameliorating Agent, And External Composition For Skin Containing The Same” (SHISEIDO COMPANY LTD., priority 2008, published 2011)

Tests used:
[1] = tested on: cheek of sensory person (who has sensitive skin); assay: Sensory Irritation Test; assay type: in vivo, human; details: for Evaluation (sensory irritation): 1 mL on cheek, ten minutes; for sensory irritation (Tables 4 and 5): 3 mass %, test subject with sensitive skin
Protocol: Then, the irritating sensation was evaluated every 30 seconds for ten minutes immediately after the application, and a final evaluation was reported (n=2). The evaluation of the irritating sensation was based on the following rating criteria in four levels, and each average rating was calculated to be classified by the following criteria.
3: The test cannot be continued because of extremely strong irritation such as tingly, burning, prickly, and itching sensation. 2: The use is intolerable because of strong irritation such as tingly, burning, prickly, and itching sensation. 1: The use is tolerable though slight irritation such as tingly, burning, prickly, and itching sensation is felt. 0: The irritation is not particularly felt.
A: Average rating is less than 0.2 B: Average rating is 0.2 or greater to less than 1.0 C: Average rating is 1.0 or greater to less than 2.0 D: Average rating is 2.0 or greater

[2] = tested on: back skin of hairless mouse (HR-1) applied with oleic acid; assay: Test for Parakeratosis-Inhibiting Effect (oleic acid applied on the back of hairless mouse; rough skin visual score and parakeratosis value); assay type: in vivo; details: for Parakeratosis value (Average for 5 mice): 3.0 mass % sample after 10 mass % oleic acid; for Parakeratosis value (Average for 5 mice) / Parakeratosis value (Average for 4 mice) / Visual observation value (Average for 4 mice): 3 days; for Parakeratosis value (Average for 5 mice) / Parakeratosis value (Average for 4 mice): control = 2.0; for effect of inhibiting parakeratosis (Tables 1 and 2) / effects of inhibiting rough skin such as desquamation and erythema caused by unsaturated fatty acids (text on Table 1): 3 mass %, hairless mouse, oleic acid; for Parakeratosis value (Average for 4 mice) / Visual observation value (Average for 4 mice): 3 mass % sample after 10 mass % oleic acid; for Parakeratosis value (Average for 4 mice): tape-stripped stratum corneum, hematoxylin, higher = more parakeratosis; for Visual observation value (Average for 4 mice): back of hairless mouse, rough skin (desquamation and erythema) score, control = 2.0, no roughness = 0.0
Protocol: 3 mass % test compound aqueous solution (containing 30 mass % ethanol) was primarily prepared as a sample solution. The pH was adjusted with hydrochloric acid or sodium hydroxide so as to be 7.0 to 7.5. When the solubility of test compound was low, the sample solution was prepared depending on the solubility.
100 μl of 10 mass % oleic acid solution (solvent: ethanol) was applied on the back of a hairless mouse (HR-1; Hoshino Laboratory Animals), and then 100 μl of the sample solution was applied thereon. […] In the evaluation, the condition of the skin on which the control (control aqueous solution) was applied set a score of 2.0 and the skin condition without roughness set a score of 0.0. Then, the skin condition was scored by visual observation in increments of 0.25 between them. At the same time, the stratum corneum at the back of the hairless mouse was peeled off with tape, the nuclei were stained by hematoxylin, and the degree of parakeratosis was observed and evaluated using a parakeratosis value within a range of 1.0 to 3.0 (in 0.25 increments). The higher the value is, the more the number of nucleated cell in the stratum corneum is, i.e., the more the parakeratosis is advanced.
The evaluation was conducted according to the plan which was approved in the in-house council on animal experiment, complying with Act on Welfare and Management of Animals and other related acts.

[3] = tested on: back skin of hairless mice (HR-1) applied with oleic acid; assay: Test for Ameliorating Effect to Rough Skin Induced by Applying Oleic Acid (TEWL); assay type: in vivo; details: for TEWL value: 3 mass % sample after 10 mass % oleic acid, 3 days, average of four mice, higher = worse rough skin, control = 12.0; for ΔTEWL value compared with the control aqueous solution (text on Table 3): 3 mass %, hairless mice, oleic acid
Protocol: The difference was compared with the control (control aqueous solution), and the effect was determined. […] The TEWL was measured using TEWA Meter TM210 (Courage+Khazaka Electronic GmBH).
100 μl of 10 mass % oleic acid solution (solvent: ethanol) was applied on the back of hairless mice (HR-1, four mice per group), and then 100 μl of the sample solution was applied thereon. The day after this procedure was continued for 3 days, the TEWL value of the back was measured, and the average value of the four mice was calculated. The higher the TEWL value is, the worse rough skin becomes.

[4] = tested on: IL-1α production in human normal keratinocytes; assay: Inhibiting Effect of Increased Production of Inflammatory Cytokine Caused by Oleic Acid; assay type: cell-based; details: for IL-lα (pmol/ml, Mean ± S.D.): 8 hours
Protocol: LTD., were incubated using KGM culture medium in a 75 cm^2 flask for 3 days. The cells were trypsinized according to a normal method, collected, and then inoculated into a 24 well plate (Corning Inc.) so as to be 40,000 cells per 0.5 ml of KGM culture medium. After incubation for another 3 days, oleic acid, or oleic acid and test compound, were added thereto. […] As a control, ethanol was added instead of oleic acid. After 8 hours, each culture was collected, and the amount of IL-1α was measured with a quantification kit (from R&D systems).

[5] = 3.0 mass % sample aqueous solution, n=2 (Table 5)
[6] = 3 mass % sample aqueous solution, n=2 (Table 4)

**Q.** How did the “Evaluation (sensory irritation)” value [1, 5] turn out when `N=C(N)NC(CCC(=O)O)C(=O)O` (racemic) [N-amidino-DL-glutamic acid] was run?
**A.** A (Average rating is less than 0.2)

**Q.** What about the “sensory irritation (Tables 4 and 5)” value [1] of the same compound?
**A.** had no problem in sensory irritation

**Q.** What about the “Parakeratosis value (Average for 5 mice)” value [2] of the same compound?
**A.** 1.2

**Q.** And the “effect of inhibiting parakeratosis (Tables 1 and 2)” value (shortened to “effect of inhibiting parakeratosis”) [2]?
**A.** lowered the parakeratosis value

**Q.** With `CNC(CCC(=O)O)C(=O)O` (racemic) [N-methyl-DL-glutamic acid] as the compound, how does the “Evaluation (sensory irritation)” value [1, 6] read?
**A.** A (Average rating is less than 0.2)

**Q.** And the “sensory irritation (Tables 4 and 5)” value [1]?
**A.** had no problem in sensory irritation

**Q.** What about the “Parakeratosis value (Average for 4 mice)” value [2] of the same compound?
**A.** 0.9

**Q.** What about the “Visual observation value (Average for 4 mice)” value (from here on “Visual observation value”) [2] of the same compound?
**A.** 0.9

**Q.** And the “effects of inhibiting rough skin such as desquamation and erythema caused by unsaturated fatty acids (text on Table 1)” value (shortened to “effects of inhibiting rough skin such”) [2]?
**A.** showed the effects of inhibiting rough skin

**Q.** And the TEWL value [3]?
**A.** 7.9

**Q.** And the “ΔTEWL value compared with the control aqueous solution (text on Table 3)” value [3]?
**A.** significantly lowered the ΔTEWL value

**Q.** For `NC(=O)NCCC[C@H](N)C(=O)O` [Citrulline, reference compound], which “Parakeratosis value (Average for 5 mice)” value [2] is on record?
**A.** 2.0

**Q.** What about the “effect of inhibiting parakeratosis” value [2] of the same compound?
**A.** did not show such effects

**Q.** `CC(=O)N[C@@H](CCC(=O)O)C(=O)O` [N-acetyl-L-glutamic acid, reference compound] was tested. Which “Parakeratosis value (Average for 4 mice)” value [2] did it give?
**A.** 1.2

**Q.** What about the “Visual observation value” value [2] of the same compound?
**A.** 1.2

**Q.** What about the “effect of inhibiting parakeratosis” value [2] of the same compound?
**A.** inferior to those of the compounds of the present invention

**Q.** What about the TEWL value [3] of the same compound?
**A.** 10.1

**Q.** And the “ΔTEWL value compared with the control aqueous solution (text on Table 3)” value [3]?
**A.** inferior to that of the compounds of the present invention

**Q.** How did the “Parakeratosis value (Average for 5 mice)” value [2] turn out when `CC(=O)N[C@@H](CCC(N)=O)C(=O)O` [N-acetyl-L-glutamine, reference compound] was run?
**A.** 1.9

**Q.** What about the “Parakeratosis value (Average for 4 mice)” value [2] of the same compound?
**A.** 1.9

**Q.** What about the “Visual observation value” value [2] of the same compound?
**A.** 1.9

**Q.** And the “effect of inhibiting parakeratosis” value [2]?
**A.** did not show such effects

**Q.** What about the “effects of inhibiting rough skin such” value [2] of the same compound?
**A.** did not show such effects

**Q.** What about the TEWL value [3] of the same compound?
**A.** 13.2

**Q.** And the “ΔTEWL value compared with the control aqueous solution (text on Table 3)” value [3]?
**A.** did not show such effects

**Q.** Which results are given for `CCNC(=O)CC[C@H](NC(C)=O)C(=O)NCC` [N-acetyl-N′,N″-diethyl-L-glutamic acid-1,5-diamide]?
**A.** IL-lα (pmol/ml, Mean ± S.D.) ([4]; 10 μM oleic acid + 500 μM test compound, solvent 4.7 ± 1.5, p < 0.01 vs. oleic acid): 225.5 ± 3.2 pmol/mL; inhibition of the increased production of IL-1α caused by oleic acid (Table 6) ([4]; 10 μM oleic acid, 500 μM (0.012%) compound): significantly inhibits the increased production of IL-1α

**Q.** `N=C(N)N[C@H](CCC(=O)O)C(=O)O` [N-amidino-D-glutamic acid] was tested. Which “Evaluation (sensory irritation)” value [1, 5] did it give?
**A.** A (Average rating is less than 0.2)

**Q.** And the “sensory irritation (Tables 4 and 5)” value [1]?
**A.** had no problem in sensory irritation

**Q.** And the “Parakeratosis value (Average for 5 mice)” value [2]?
**A.** 1.2

**Q.** And the “effect of inhibiting parakeratosis” value [2]?
**A.** lowered the parakeratosis value

**Q.** Which results are given for `Cl.N=C(N)N[C@@H](CCC(=O)O)C(=O)O` [N-amidino-L-glutamic acid hydrochloride]?
**A.** Evaluation (sensory irritation) [1, 5]: A (Average rating is less than 0.2); sensory irritation (Tables 4 and 5) [1]: had no problem in sensory irritation; Parakeratosis value (Average for 5 mice) [2]: 1.1; effect of inhibiting parakeratosis (Tables 1 and 2) [2]: lowered the parakeratosis value

**Q.** With `N=C(N)N[C@@H](CCC(=O)O)C(=O)O` [N-amidino-L-glutamic acid] as the compound, how does the “Evaluation (sensory irritation)” value [1, 5] read?
**A.** A (Average rating is less than 0.2)

**Q.** What about the “sensory irritation (Tables 4 and 5)” value [1] of the same compound?
**A.** had no problem in sensory irritation

**Q.** And the “Parakeratosis value (Average for 5 mice)” value [2]?
**A.** 1.1

**Q.** And the “effect of inhibiting parakeratosis” value [2]?
**A.** lowered the parakeratosis value

**Q.** Which results are given for `O=C(O)CC[C@H](NC(=O)OCc1ccccc1)C(=O)O` [N-benzyloxycarbonyl-L-glutamic acid]?
**A.** Evaluation (sensory irritation) [1, 6]: A (Average rating is less than 0.2); sensory irritation (Tables 4 and 5) [1]: had no problem in sensory irritation; Parakeratosis value (Average for 4 mice) [2]: 0.9; Visual observation value (Average for 4 mice) [2]: 0.9; effects of inhibiting rough skin such as desquamation and erythema caused by unsaturated fatty acids (text on Table 1) [2]: showed the effects of inhibiting rough skin; TEWL value [3]: 6.8; ΔTEWL value compared with the control aqueous solution (text on Table 3) [3]: significantly lowered the ΔTEWL value

**Q.** For `NC(=O)N[C@@H](CCC(=O)O)C(=O)O` [N-carbamoyl-L-glutamic acid], which “Evaluation (sensory irritation)” value [1, 6] is on record?
**A.** A (Average rating is less than 0.2)

**Q.** What about the “sensory irritation (Tables 4 and 5)” value [1] of the same compound?
**A.** had no problem in sensory irritation

**Q.** What about the “Parakeratosis value (Average for 4 mice)” value [2] of the same compound?
**A.** 0.7

**Q.** What about the “Visual observation value” value [2] of the same compound?
**A.** 0.7

**Q.** And the “effects of inhibiting rough skin such” value [2]?
**A.** showed the effects of inhibiting rough skin

**Q.** And the TEWL value [3]?
**A.** 6.4

**Q.** What about the “ΔTEWL value compared with the control aqueous solution (text on Table 3)” value [3] of the same compound?
**A.** significantly lowered the ΔTEWL value

**Q.** With `CN[C@@H](CCC(=O)O)C(=O)O` [N-methyl-L-glutamic acid] as the compound, how does the “Evaluation (sensory irritation)” value [1, 6] read?
**A.** A (Average rating is less than 0.2)

**Q.** What about the “sensory irritation (Tables 4 and 5)” value [1] of the same compound?
**A.** had no problem in sensory irritation

**Q.** And the “Parakeratosis value (Average for 4 mice)” value [2]?
**A.** 0.8

**Q.** And the “Visual observation value” value [2]?
**A.** 0.8

**Q.** And the “effects of inhibiting rough skin such” value [2]?
**A.** showed the effects of inhibiting rough skin

**Q.** What about the TEWL value [3] of the same compound?
**A.** 6.4

**Q.** What about the “ΔTEWL value compared with the control aqueous solution (text on Table 3)” value [3] of the same compound?
**A.** significantly lowered the ΔTEWL value

**Q.** Which “Evaluation (sensory irritation)” value [1, 5] does the source give for `N=C(N)N[C@@H](CCC(=O)[O-])C(=O)[O-].[Na+].[Na+]` [Sodium N-amidino-L-glutamate] here?
**A.** A (Average rating is less than 0.2)

**Q.** What about the “sensory irritation (Tables 4 and 5)” value [1] of the same compound?
**A.** had no problem in sensory irritation

**Q.** And the “Parakeratosis value (Average for 5 mice)” value [2]?
**A.** 1.1

**Q.** And the “effect of inhibiting parakeratosis” value [2]?
**A.** lowered the parakeratosis value

**Q.** `CCCCCCCC/C=C\CCCCCCCC(=O)O` [oleic acid, reference compound] was tested. Which “IL-lα (pmol/ml, Mean ± S.D.)” value ([4]; 10 μM oleic acid alone, solvent (ethanol) 4.7 ± 1.5) did it give?
**A.** 239.8 ± 1.3 pmol/mL

**Q.** `NCCCC(=O)O` [γ-aminobutyric acid, reference compound] was tested. Which “Evaluation (sensory irritation)” value [1, 6] did it give?
**A.** C (Average rating is 1.0 or greater to less than 2.0)

**Q.** And the “Evaluation (sensory irritation)” value [1, 5]?
**A.** C (Average rating is 1.0 or greater to less than 2.0)

**Q.** And the “sensory irritation (Tables 4 and 5)” value [1]?
**A.** resulted in giving sensory irritation
